The values below come from US20220389061A1, “IMMUNOMODULATORS” (priority 2019, published 2022).

The pIC50 is the IC50 on a negative log10 scale, so that one unit is a factor of ten.

pIC50: −log10 of the molar value. Read-outs that look alike come from different tables or passages of the source. Starred links: 1 amine or outer side, 2 acyl side, 3 side chain; linkers in the order of their positions; H or OH if unused. Positions of bridges follow the written chain, without caps; N, C: chain ends. Non-standard residues stand in square brackets, D forms with d. Residues, ends and D or L forms follow the SMILES beside them. Groups on a side chain read outwards from the residue. *: point of attachment. Trp(1-CH2CO2Me) = COC(=O)Cn1cc(C[C@H](N)C(=O)O)c2ccccc21; Trp(1-CH2COOH) = N[C@@H](Cc1cn(CC(=O)O)c2ccccc12)C(=O)O; Benzoyl(2-(4-MeOPh)) = COc1ccc(-c2ccccc2C(=O)*)cc1; Hyp = O=C(O)[C@@H]1C[C@@H](O)CN1; X56 = COc1cc([N+](=O)[O-])ccc1N*; X3 = S=C(Nc1ccc(Oc2ccccc2)cc1)*; X78 = S=C(Nc1c(Cl)cc(Cl)cc1Cl)*; X84 = COc1cc(NC(=S)*)cc(OC)c1OC; X11 = S=C(Nc1ccccc1-c1ccccc1)*; X28 = Cc1ccc(Cl)c(NC(=S)*)c1Cl; NMeNle = CCCC[C@H](NC)C(=O)O; X64 = COc1cc(OC)c(N*)cc1Cl; X74 = Cc1cc(C)c(N*)c(C)c1; 3Abz = Nc1cccc(C(=O)O)c1; NMeA = CN[C@@H](C)C(=O)O; Dab = NCC[C@H](N)C(=O)O; Dap = NC[C@H](N)C(=O)O; X37 = Fc1cc(F)cc(N*)c1; X46 = COc1ccc(Cl)cc1N*; X77 = Clc1cccc(N*)c1Cl; CO = O=C([*:1])[*:2]

The target in the experiment is T1, PD-1/PD-L1 (Homo sapiens, UniProt Q9NZQ7).
T1 construct: TVMV protease site linker (C); made in house; host or cells: HEK293T cells
Nature of the experiment: PD-1/PD-L1 Homogenous Time-Resolved Fluorescence (HTRF) binding assay. The method, boiled down:
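Compounds preincubated 15 min with PD-L1-His (10 nM final), then PD-1-Ig (20 nM final) added for 15 min in dPBS with 0.1% BSA, 0.05% Tween-20. Detection by Eu-cryptate anti-Ig (1 nM) and APC anti-His (20 nM) HTRF.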
Background: Time-resolved FRET reads energy transfer from a long-lived donor to a nearby acceptor.

[1] abbreviates: PD-L1-His 10 nM pre-incubated with inhibitor, PD-1-Ig 20 nM, read-out: HTRF IC50.

T1 sequence (Q9NZQ7 18-239): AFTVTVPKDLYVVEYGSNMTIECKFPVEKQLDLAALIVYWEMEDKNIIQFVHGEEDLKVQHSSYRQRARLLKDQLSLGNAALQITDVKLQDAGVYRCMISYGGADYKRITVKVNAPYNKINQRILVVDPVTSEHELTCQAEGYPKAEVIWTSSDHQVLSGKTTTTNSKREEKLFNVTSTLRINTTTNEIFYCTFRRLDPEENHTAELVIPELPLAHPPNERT

Regarding `CCCC[C@H]1C(=O)N(C)[C@@H](CCCC)C(=O)N[C@@H](CC(C)C)C(=O)N[C@H](C(=O)NCC(N)=O)CSCC(=O)N[C@@H](Cc2ccc(O)cc2)C(=O)N(C)[C@@H](C)C(=O)N[C@@H](CC(N)=O)C(=O)N2CCC[C@H]2C(=O)N[C@@H](CNC(=S)Nc2c(Cl)ccc(C)c2Cl)C(=O)N[C@@H](CC(C)C)C(=O)N2C[C@H](O)C[C@H]2C(=O)N[C@@H](Cc2c[nH]c3ccccc23)C(=O)N[C@@H](CCN)C(=O)N[C@@H](Cc2cn(CC(=O)O)c3ccccc23)C(=O)N1C` [Example 1073] ({CH2CO}-Y[NMeA]NP[Dap](X28)L[Hyp]W[Dab][Trp(1-CH2COOH)][NMeNle][NMeNle]LCG-NH2; thioether N-14), the pIC50 under setting [1] was 8.10.
On the same count and under the same terms, under `CCCC[C@H]1C(=O)N(C)[C@@H](CCCC)C(=O)N[C@@H](CC(C)C)C(=O)N[C@H](C(=O)NCC(N)=O)CSCC(=O)N[C@@H](Cc2ccc(O)cc2)C(=O)N(C)[C@@H](C)C(=O)N[C@@H](CC(N)=O)C(=O)N2CCC[C@H]2C(=O)N[C@@H](CNC(=O)Nc2cc(Cl)ccc2OC)C(=O)N[C@@H](CC(C)C)C(=O)N2C[C@H](O)C[C@H]2C(=O)N[C@@H](Cc2c[nH]c3ccccc23)C(=O)N[C@@H](CCN)C(=O)N[C@@H](Cc2cn(CC(=O)O)c3ccccc23)C(=O)N1C` [Example 1074] ({CH2CO}-Y[NMeA]NP[Dap]([CO-X46])L[Hyp]W[Dab][Trp(1-CH2COOH)][NMeNle][NMeNle]LCG-NH2; thioether N-14) stands 8.20; under `CCCC[C@H]1C(=O)N(C)[C@@H](CCCC)C(=O)N[C@@H](CC(C)C)C(=O)N[C@H](C(=O)NCC(N)=O)CSCC(=O)N[C@@H](Cc2ccc(OC)cc2)C(=O)N(C)[C@@H](C)C(=O)N[C@@H](CC(N)=O)C(=O)N2CCC[C@H]2C(=O)N[C@@H](CNC(=O)c2ccccc2-c2ccc(OC)cc2)C(=O)N[C@@H](CC(C)C)C(=O)N2C[C@H](O)C[C@H]2C(=O)N[C@@H](Cc2c[nH]c3ccccc23)C(=O)N[C@@H](CCNC(=O)c2ccccc2-c2ccc(OC)cc2)C(=O)N[C@@H](Cc2cn(CC(=O)OC)c3ccccc23)C(=O)N1C` [Example 1075] ({CH2CO}-Y(Me)[NMeA]NP[Dap](Benzoyl(2-(4-MeOPh)))L[Hyp]W[Dab](Benzoyl(2-(4-MeOPh)))[Trp(1-CH2CO2Me)][NMeNle][NMeNle]LCG-NH2; thioether N-14), 7.04.
`CCCC[C@H]1C(=O)N(C)[C@@H](CCCC)C(=O)N[C@@H](CC(C)C)C(=O)N[C@H](C(=O)NCC(N)=O)CSCC(=O)N[C@@H](Cc2ccc(O)cc2)C(=O)N(C)[C@@H](C)C(=O)N[C@@H](CC(N)=O)C(=O)N2CCC[C@H]2C(=O)N[C@@H](CNC(=O)Nc2ccc([N+](=O)[O-])cc2OC)C(=O)N[C@@H](CC(C)C)C(=O)N2C[C@H](O)C[C@H]2C(=O)N[C@@H](Cc2c[nH]c3ccccc23)C(=O)N[C@@H](CCNC(=O)Nc2ccc([N+](=O)[O-])cc2OC)C(=O)N[C@@H](Cc2cn(CC(=O)O)c3ccccc23)C(=O)N1C` [Example 1076] ({CH2CO}-Y[NMeA]NP[Dap]([CO-X56])L[Hyp]W[Dab]([CO-X56])[Trp(1-CH2COOH)][NMeNle][NMeNle]LCG-NH2; thioether N-14) had a pIC50 of 8.09.
For `CCCC[C@H]1C(=O)N(C)[C@@H](CCCC)C(=O)N[C@@H](CC(C)C)C(=O)N[C@H](C(=O)NCC(N)=O)CSCC(=O)N[C@@H](Cc2ccc(O)cc2)C(=O)N(C)[C@@H](C)C(=O)N[C@@H](CC(N)=O)C(=O)N2CCC[C@H]2C(=O)N[C@@H](CNC(=S)Nc2c(Cl)cc(Cl)cc2Cl)C(=O)N[C@@H](CC(C)C)C(=O)N2C[C@H](O)C[C@H]2C(=O)N[C@@H](Cc2c[nH]c3ccccc23)C(=O)N[C@@H](CCNC(=S)Nc2c(Cl)cc(Cl)cc2Cl)C(=O)N[C@@H](Cc2cn(CC(=O)O)c3ccccc23)C(=O)N1C` [Example 1077] ({CH2CO}-Y[NMeA]NP[Dap](X78)L[Hyp]W[Dab](X78)[Trp(1-CH2COOH)][NMeNle][NMeNle]LCG-NH2; thioether N-14), the pIC50 under setting [1] is 8.24.
On the same count and under the same terms, the value for `CCCC[C@H]1C(=O)N(C)[C@@H](CCCC)C(=O)N[C@@H](CC(C)C)C(=O)N[C@H](C(=O)NCC(N)=O)CSCC(=O)N[C@@H](Cc2ccc(O)cc2)C(=O)N(C)[C@@H](C)C(=O)N[C@@H](CC(N)=O)C(=O)N2CCC[C@H]2C(=O)N[C@@H](CNC(=O)Nc2cccc(C(=O)OCC)c2)C(=O)N[C@@H](CC(C)C)C(=O)N2C[C@H](O)C[C@H]2C(=O)N[C@@H](Cc2c[nH]c3ccccc23)C(=O)N[C@@H](CCN)C(=O)N[C@@H](Cc2cn(CC(=O)O)c3ccccc23)C(=O)N1C` [Example 1078] ({CH2CO}-Y[NMeA]NP[Dap]([CO-3Abz-OEt])L[Hyp]W[Dab][Trp(1-CH2COOH)][NMeNle][NMeNle]LCG-NH2; thioether N-14) was 8.39.
Still for that read-out and setting: the value for `CCCC[C@H]1C(=O)N(C)[C@@H](CCCC)C(=O)N[C@@H](CC(C)C)C(=O)N[C@H](C(=O)NCC(N)=O)CSCC(=O)N[C@@H](Cc2ccc(O)cc2)C(=O)N(C)[C@@H](C)C(=O)N[C@@H](CC(N)=O)C(=O)N2CCC[C@H]2C(=O)N[C@@H](CNC(=O)Nc2cc(F)cc(F)c2)C(=O)N[C@@H](CC(C)C)C(=O)N2C[C@H](O)C[C@H]2C(=O)N[C@@H](Cc2c[nH]c3ccccc23)C(=O)N[C@@H](CCN)C(=O)N[C@@H](Cc2cn(CC(=O)O)c3ccccc23)C(=O)N1C` [Example 1079] ({CH2CO}-Y[NMeA]NP[Dap]([CO-X37])L[Hyp]W[Dab][Trp(1-CH2COOH)][NMeNle][NMeNle]LCG-NH2; thioether N-14) was 8.60; that for `CCCC[C@H]1C(=O)N(C)[C@@H](CCCC)C(=O)N[C@@H](CC(C)C)C(=O)N[C@H](C(=O)NCC(N)=O)CSCC(=O)N[C@@H](Cc2ccc(O)cc2)C(=O)N(C)[C@@H](C)C(=O)N[C@@H](CC(N)=O)C(=O)N2CCC[C@H]2C(=O)N[C@@H](CNC(=S)Nc2ccc(Oc3ccccc3)cc2)C(=O)N[C@@H](CC(C)C)C(=O)N2C[C@H](O)C[C@H]2C(=O)N[C@@H](Cc2c[nH]c3ccccc23)C(=O)N[C@@H](CCNC(=S)Nc2ccc(Oc3ccccc3)cc2)C(=O)N[C@@H](Cc2cn(CC(=O)O)c3ccccc23)C(=O)N1C` [Example 1080] ({CH2CO}-Y[NMeA]NP[Dap](X3)L[Hyp]W[Dab](X3)[Trp(1-CH2COOH)][NMeNle][NMeNle]LCG-NH2; thioether N-14) was 8.47.
Consider `CCCC[C@H]1C(=O)N(C)[C@@H](CCCC)C(=O)N[C@@H](CC(C)C)C(=O)N[C@H](C(=O)NCC(N)=O)CSCC(=O)N[C@@H](Cc2ccc(O)cc2)C(=O)N(C)[C@@H](C)C(=O)N[C@@H](CC(N)=O)C(=O)N2CCC[C@H]2C(=O)N[C@@H](CNC(=O)Nc2c(C)cc(C)cc2C)C(=O)N[C@@H](CC(C)C)C(=O)N2C[C@H](O)C[C@H]2C(=O)N[C@@H](Cc2c[nH]c3ccccc23)C(=O)N[C@@H](CCNC(=O)Nc2c(C)cc(C)cc2C)C(=O)N[C@@H](Cc2cn(CC(=O)O)c3ccccc23)C(=O)N1C` [Example 1081] ({CH2CO}-Y[NMeA]NP[Dap]([CO-X74])L[Hyp]W[Dab]([CO-X74])[Trp(1-CH2COOH)][NMeNle][NMeNle]LCG-NH2; thioether N-14), for which the pIC50 under setting [1] is 8.57.
Take `CCCC[C@H]1C(=O)N(C)[C@@H](CCCC)C(=O)N[C@@H](CC(C)C)C(=O)N[C@H](C(=O)NCC(N)=O)CSCC(=O)N[C@@H](Cc2ccc(O)cc2)C(=O)N(C)[C@@H](C)C(=O)N[C@@H](CC(N)=O)C(=O)N2CCC[C@H]2C(=O)N[C@@H](CNC(=O)Nc2cc(Cl)c(OC)cc2OC)C(=O)N[C@@H](CC(C)C)C(=O)N2C[C@H](O)C[C@H]2C(=O)N[C@@H](Cc2c[nH]c3ccccc23)C(=O)N[C@@H](CCNC(=O)Nc2cc(Cl)c(OC)cc2OC)C(=O)N[C@@H](Cc2cn(CC(=O)O)c3ccccc23)C(=O)N1C` [Example 1082] ({CH2CO}-Y[NMeA]NP[Dap]([CO-X64])L[Hyp]W[Dab]([CO-X64])[Trp(1-CH2COOH)][NMeNle][NMeNle]LCG-NH2; thioether N-14): the negative-log IC50 (pIC50) under setting [1] was 8.82.
Consider `CCCC[C@H]1C(=O)N(C)[C@@H](CCCC)C(=O)N[C@@H](CC(C)C)C(=O)N[C@H](C(=O)NCC(N)=O)CSCC(=O)N[C@@H](Cc2ccc(O)cc2)C(=O)N(C)[C@@H](C)C(=O)N[C@@H](CC(N)=O)C(=O)N2CCC[C@H]2C(=O)N[C@@H](CNC(=S)Nc2cc(OC)c(OC)c(OC)c2)C(=O)N[C@@H](CC(C)C)C(=O)N2C[C@H](O)C[C@H]2C(=O)N[C@@H](Cc2c[nH]c3ccccc23)C(=O)N[C@@H](CCNC(=S)Nc2cc(OC)c(OC)c(OC)c2)C(=O)N[C@@H](Cc2cn(CC(=O)O)c3ccccc23)C(=O)N1C` [Example 1083] ({CH2CO}-Y[NMeA]NP[Dap](X84)L[Hyp]W[Dab](X84)[Trp(1-CH2COOH)][NMeNle][NMeNle]LCG-NH2; thioether N-14), for which, under setting [1], the pIC50 was 9.22.
For the molecule `CCCC[C@H]1C(=O)N(C)[C@@H](CCCC)C(=O)N[C@@H](CC(C)C)C(=O)N[C@H](C(=O)NCC(N)=O)CSCC(=O)N[C@@H](Cc2ccc(O)cc2)C(=O)N(C)[C@@H](C)C(=O)N[C@@H](CC(N)=O)C(=O)N2CCC[C@H]2C(=O)N[C@@H](CNC(=O)Nc2cccc(Cl)c2Cl)C(=O)N[C@@H](CC(C)C)C(=O)N2C[C@H](O)C[C@H]2C(=O)N[C@@H](Cc2c[nH]c3ccccc23)C(=O)N[C@@H](CCNC(=O)Nc2cccc(Cl)c2Cl)C(=O)N[C@@H](Cc2cn(CC(=O)O)c3ccccc23)C(=O)N1C` [Example 1084] ({CH2CO}-Y[NMeA]NP[Dap]([CO-X77])L[Hyp]W[Dab]([CO-X77])[Trp(1-CH2COOH)][NMeNle][NMeNle]LCG-NH2; thioether N-14), the pIC50 was 8.59.
With `CCCC[C@H]1C(=O)N(C)[C@@H](CCCC)C(=O)N[C@@H](CC(C)C)C(=O)N[C@H](C(=O)NCC(N)=O)CSCC(=O)N[C@@H](Cc2ccc(O)cc2)C(=O)N(C)[C@@H](C)C(=O)N[C@@H](CC(N)=O)C(=O)N2CCC[C@H]2C(=O)N[C@@H](CNC(=S)Nc2ccccc2-c2ccccc2)C(=O)N[C@@H](CC(C)C)C(=O)N2C[C@H](O)C[C@H]2C(=O)N[C@@H](Cc2c[nH]c3ccccc23)C(=O)N[C@@H](CCN)C(=O)N[C@@H](Cc2cn(CC(=O)O)c3ccccc23)C(=O)N1C` [Example 1085] ({CH2CO}-Y[NMeA]NP[Dap](X11)L[Hyp]W[Dab][Trp(1-CH2COOH)][NMeNle][NMeNle]LCG-NH2; thioether N-14), under setting [1], the pIC50 is 8.42.
